From patent US20130005802A1, “TREATMENT OF WNT/FRIZZLED-RELATED DISEASES” (priority 2009, published 2013)
Read-outs that look alike come from different tables or passages of the source.

Key:
Frizzled1-GFP = Frizzled1-GFP (Rattus norvegicus, UniProt Q08463); experiment: Co-localization of internalized Frizzled1-GFP with β2-adrenergic receptor-RFP or Transferrin; assay type: cell-based
Description: To remove remaining surface bound Tf, the cells were exposed to unlabeled transferrin (10 mg/mL) for 2 min at room temperature. The cells were then fixed with 4% paraformaldehye, and imaged with a LSM510 confocal microscope (Zeiss).
Many classes of membrane receptors internalize in clathrin coated pits. In particular, β2-adrenergic receptors are prototypical for clathrin-dependent internalization of G protein-coupled receptors (Barak, L. S., et al. Mol Pharmacol 1997, 51, 177-184; Goodman, O. B., Jr., et al. Nature 1996, 383, 447-450, both are incorporated herein by reference in their entireties), and Transferrin is a well-documented standard for clathrin-mediated internalization in general (Mellman, I. Annu Rev Cell Dev Biol 1996, 12, 575-625, incorporated herein by reference). It was examined whether internalized Frizzled1-GFP co-localizes with either β2-adrenergic receptor-RFP or Transferrin in intracellular vesicles. FIG. 6A-6C show confocal images of unstimulated U2OS cells expressing both β2-adrenergic receptor-RFP (β2AR-RFP, FIG. 6A) and Frizzled1 receptors (Fzd1-GFP, FIG. 6B) prior to activation.
The merged image is presented in (FIG. 6L), wherein arrowheads indicate co-localized vesicles.

[1] = system: LEF/TCF transcription factor reporter (TOPFlash); experiment: TOPFlash reporter assay in HEK293 cells; assay type: cell-based; conditions: Homo sapiens
Description: To obtain a Frizzled1-GFP stable cell line (Fzd1GFP-U2OS), U2OS cells were transfected with pCS2ratFrizzled1-GFP and pLKO.1 (10:1 ratio by weight), using the Nucleofection transfection protocol from Amaxa, and stable receptor expressing clones were selected using 1.5 μg/mL puromycin in the culture medium. For generating TOPFlash stable cell lines, HEK293 cells were transfected with p8xTOPFlash, the Renilla luciferase plasmid, and pLKO.1 at a ratio by weight of 10:3:1 and stable clones selected using 1 μg/mL puromycin in the growth medium. pLKO.1 was used to confer puromycin resistance to the stable clones.
For the TOPFlash Luciferase assay the TOPFlash stable cells were seeded in 150 μL growing medium/well in 96-well plates at 100% confluency. Fifty microliters of conditioned medium containing the chemical compounds to be tested or DMSO were added to each well. After an 8 hr treatment, the cells were then washed once with PBS, and lysed with 80 μL MPER solution (Pierce, Rockford, Ill.). Thirty microliters of cell lysate were used for measuring luciferase activity in a 96-well plate reader (FluoStar Optima, BMG Labtech, Chicago, Ill.).
LEF/TCF transcription factor reporter (TOPFlash) assay is a general readout for canonical Wnt signaling pathways. […] A Renila luciferase plasmid was also generated to serve as an internal control.
The average TOPFlash reporter activity of Wnt3A plus DMSO treatment was set as 100%, and the relative reporter activity of Wnt3A plus the indicated concentration of niclosmide was calculated and plotted.
The compounds shown in Table 2 were purchased from Sigma-Aldrich (St. Louis, Mo.) or Chembridge (San Diego, Calif.). The activity of each of the compounds as a negative modulator of the Wnt/Frizzled signaling pathway was examined using the Top-flash assay, as described above.

CaCO2 cells = experiment: MTT assay, CaCO2; assay type: cell-based; conditions: for IC50: Homo sapiens, Caco-2, 72 h
Description: AsPC-1 tumor cells were cultured with T cells at a 1:5 ratio for 7 days in the presence of MEDI-565 or Cont BiTE (100 ng/mL). On day 7, floating cells were discarded and only adherent AsPC-1 cells were harvested with 0.05% trypsin/EDTA and washed with PBS three times. 1×10^4 AsPC-1 tumor cells were added to each well of 96 well flat bottom plates in 200 μL of complete RPMI1640 medium. The cells were allowed to adhere to the plates overnight at 37° C. (day 0) and were further incubated for 1, 2, 4 or 7 days. 20 μL of 10×MTT (3-[4,5-dimethylthiazol-2-yl]-2,5-diphenyl-tetrazolium bromide, 5 mg/mL) solution was added to each well, and incubated at 37° C. for 2 hr. The adherent cells were lysed with 150 μL of dimethyl sulfoxide (DMSO) and the optical density (OD) at 550 nm was measured.
Colorectal cancer cell lines were incubated in 96-well flat-bottomed plates at 5,000 cells per well in 200 μL of complete RPMI1640 medium. The cells were allowed to adhere to the plates overnight at 37° C. (day 0). […] Then 20 μL of 10×MTT solution was added to each well and incubated at 37° C. for 2 hr. The adherent cells were lysed with 150 μL of DMSO, and then optical density (OD) at 562 nm was measured. DMSO or culture medium was used as a control.
MTT assay was performed at each time point.
An MTT assay was performed after 72 hr incubation. After cell lysis with DMSO, the optical density (OD) at 562 nm was measured.

Dvl-2 = experiment: Western blot of cytosolic Dvl-2 in colorectal cancer cells; assay type: cell-based
Description: CRC explants and colorectal cancer cell lines were cultured in 6-well plates. […] After washing cells with PBS three times, hypotonic lysis buffer consist of 10 mM Tris-HCl, pH7.4 and 0.2 mM MgCl2, supplemented with 1× Halt Protease and Phosphatase Inhibitor Cocktail (Thermo Scientific Pierce Protein Research Products, Rockford, Ill.) were applied to make cell lyates for Western Blot.
After washing cells with PBS, cell lysates were made with hypotonic lysis buffer.

in vivo = conditions: NOD/SCID, mouse, po, 200 mg/kg
Description: Blood samples were obtained from vena cava following euthanasia by ketamin injection at predose and at 0.25, 0.5, 0.75, 1, 1.5, 4, 8, 12, 24 hr after drug administration. Blood samples were put into eppendorf tubes containing 10 μL of heparin (1000 U/mL), centrifuged at 1,200 g for 10 min. Plasma were collected and frozen at −20° C. until HPLC analysis.
The Calibration curve was linear from 0.2 ng/mL (lower limit of quantitation, LLOQ) to 300 ng/mL.
Blood samples were obtained from vena cava at predose and at 0.25, 0.5, 0.75, 1, 1.5, 4, 8, 12, 24 hr after drug administration. Plasma was collected by the centrifugation (1,200 g, 10 min) of blood with heparin (100 U/mL).

Chain of Frizzled1-GFP (Q08463 69-641): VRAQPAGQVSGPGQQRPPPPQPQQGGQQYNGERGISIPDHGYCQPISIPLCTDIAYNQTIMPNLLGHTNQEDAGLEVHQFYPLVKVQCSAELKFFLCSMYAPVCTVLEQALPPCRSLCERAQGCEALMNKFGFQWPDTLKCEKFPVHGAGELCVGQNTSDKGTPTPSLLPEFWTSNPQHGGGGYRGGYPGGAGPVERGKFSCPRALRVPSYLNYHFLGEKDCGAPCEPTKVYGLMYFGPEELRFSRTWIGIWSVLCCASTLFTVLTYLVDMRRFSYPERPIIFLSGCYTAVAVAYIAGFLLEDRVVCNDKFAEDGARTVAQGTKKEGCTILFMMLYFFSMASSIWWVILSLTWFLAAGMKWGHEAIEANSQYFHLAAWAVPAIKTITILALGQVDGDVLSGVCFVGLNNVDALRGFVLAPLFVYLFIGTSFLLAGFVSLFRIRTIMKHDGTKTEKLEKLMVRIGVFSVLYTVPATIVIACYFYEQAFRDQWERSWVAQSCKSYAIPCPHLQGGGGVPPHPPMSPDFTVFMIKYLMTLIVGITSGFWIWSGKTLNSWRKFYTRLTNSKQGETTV

In the case of `O=C(Nc1ccc([N+](=O)[O-])cc1Cl)c1cc(Cl)ccc1O` [niclosamide], the “co-localization of Fzd1-GFP with β2AR-RFP” value (Frizzled1-GFP; […] niclosamide and 0.1 μM isoproterenol, 2 hr or 6 hr) is reported as “multiple overlapping intracellular distributions”, the “co-localization of internalized Transferrin with internalized Frizzled1” value (Frizzled1-GFP; […] niclosamide, Transferrin 100 μg/mL, 2 hr) is reported as “significant co-localization” and the IC50 ([1]; Wnt3A conditioned medium, read-out: IC50 of inhibition of Wnt3A stimulated TOPFlash reporter activity) is reported as 500 ± 50 nM. For the same compound, the IC50 ([1]; read-out: TopFlash assay: IC50) was < 1000 nM, the “cytotoxic effect compared with 10 μM oxaliplatin” value (CaCO2 cells; 2 μM, 72 hr) was “stronger cytotoxic effect” and the “proliferation (MTT, OD 562 nm)” value (CaCO2 cells; 0.4, 2, 10 μM, 72 hr) was “less proliferation”. For the same compound, the “% proliferation over time” value (CaCO2 cells; 0.4, 2, 10 μM, 24-96 hr) was “sensitive”, the IC50 (CaCO2 cells; read-out: IC50 of niclosamide (MTT)) was 1000 nM and the IC50 (CaCO2 cells; read-out: IC50 of niclosamide (MTT) with oxaliplatin) was 500 nM. For the same compound, the “cytosolic Dvl-2 expression” value (Dvl-2; CRC057 and HCT116, 1, 5, 10 μM, 18 hr) was “downregulated”, the “cytosolic Dvl-2 expression” value (Dvl-2; HT29 cells) was “milder change” and the Cmax (in vivo) was 894 ng/mL. The “Elimination rate (z-lambda)” value (in vivo) was 0.217 h⁻¹, the Tmax (in vivo) was 15 min and the concentration at 1.5 hr (in vivo) was 77.6 ng/mL. It also gave a half-life (in vivo) of 192 min.
